Data on 5 molecules can be found in US20100160294A1 (Cypress Biosciences, Inc., priority 2008, published 2010).

Series [1] is described as follows: Example 1: tolerability study of mirtazapine and reboxetine in normal healthy subjects. The series is classed as in vivo, human. Particulars: 6 weeks; 15 mg mirtazapine in the evening, 2 mg reboxetine in the morning, or 2 or 4 mg reboxetine + 15 mg mirtazapine. Here is the method:
(§1) The subjects receive 2 capsules per day, one in the morning and one at bedtime. […] All medications are administered in an over-encapsulated format that ensures blinding of study participants, staff and investigators. All subjects are scheduled to receive a total of 6 weeks of therapy, and are required to return to the clinics after 1, 2, 4 and 6 weeks of therapy. Patients are required to complete paper self-assessments, electronic diary assessments, computer based cognitive testing, as well as vital signs and weight assessments at the clinic visits.

The nature of series [2]: Example 4: tolerability study of mirtazapine and betahistine in normal healthy subjects. It is filed as in vivo, human. The conditions noted are these: 6 weeks; 15 mg mirtazapine in the evening, 8 mg betahistine in the morning, or 8 or 16 mg betahistine + 15 mg mirtazapine. On the procedure: as §1
The test system of series [3] is 5-HT and NA reuptake sites. The conditions noted are these: ratio of Ki for serotonin reuptake to Ki for norepinephrine reuptake; from U.S. Pat. No. 6,642,235; cited from earlier work.
The conditions of series [4]: cited from earlier work.

As to `CCOc1ccccc1OC(c1ccccc1)C1CNCCO1` (racemic) [reboxetine, 2-[(2-ethoxyphenoxy)-phenyl-methyl]morpholine], the side effects result in series [1] was “insomnia, nausea/vomiting, and weight loss”; in series [2], “insomnia, nausea/vomiting, and weight loss”. The “norepinephrine reuptake inhibitor selectivity (Ki5HT/KiNA)” value in series [3] is “about 80”.
In the case of (S,S)reboxetine, the “norepinephrine reuptake inhibitor selectivity (Ki5HT/KiNA)” value in series [3] is listed as “about 12,700”.
`CNCCc1ccccn1` [betahistine, 2-[2-(methylamino)ethyl]pyridine]: the side effects result in series [2] was “insomnia, nausea/vomiting, and weight loss”.
For `CN(C)CCC=C1c2ccccc2CCc2ccccc21` [amitriptyline], the “appetite increase reported, share of patients” value in series [4] (controlled studies, placebo 2%) is listed as 6%. In series [4] (same controlled trials, placebo 0%), the “weight gain of greater than or equal to 7% of body weight, share of patients” value is listed as 5.9%.
As for `CN1CCN2c3ncccc3Cc3ccccc3C2C1` (stereo not drawn) [mirtazapine, 1,2,3,4,10,14b-hexahydro-2-methylpyrazino [2,1-a]pyrido[2,3-c]benzazepine], the side effects result is “weight gain, sedation, and cognitive deficits” in series [1]; “weight gain, sedation, and cognitive deficits” in series [2].
